Earlier results on 8 substances are cited in US4530920A, “Nonapeptide and decapeptide analogs of LHRH, useful as LHRH agonist” (Syntex (U.S.A.) Inc., priority 1983, dated 1985).

In this data set the test system is LHRH activity. The conditions noted are these: for potency (times LHRH): relative to LHRH, from Rivier et al. 1975 and Vale et al. 1979; for activity relative to LH-RH: 6-position Gly replaced by a D-amino acid, literature.

Consider [D-Trp^6, Pro^9 -NHEt]LHRH, for which the “potency (times LHRH)” value is 144 times LHRH.
Regarding [D-Arg^6 ]LHRH, the “potency (times LHRH)” value is 3.9 times LHRH.
On to [D-Trp^6 ]LHRH, for which the “activity relative to LH-RH” value was “increased activity relative to LH-RH” and the “potency (times LHRH)” value is listed as 36 times LHRH.
As for [D-Leu^6 ]LHRH, the “activity relative to LH-RH” value was “increased activity relative to LH-RH”.
For the substance [D-LYS^6]LHRH, the “potency (times LHRH)” value was 3.8 times LHRH.
Turning to [D Ala^6 ]-LHRH, the “activity relative to LH-RH” value is “increased activity relative to LH-RH”.
Regarding [D-Arg^6, Pro^9 -NHEt]LHRH, the “potency (times LHRH)” value was 16.7 times LHRH.
Take [D-Phe^6 ]LHRH: the “activity relative to LH-RH” value was “increased activity relative to LH-RH”.
